Data published in ChEMBL document CHEMBL1165890, “Inside HDAC with HDAC inhibitors” (Eur J Med Chem, 2010).
Blank lines part the entries; values can stand above or below the compound they belong to. Non-standard residues stand in square brackets, D forms with d. Residues, ends and D or L forms follow the SMILES beside them. *: point of attachment. Ala(indol-2-yl) = N[C@@H](Cc1cc2ccccc2[nH]1)C(=O)O; Asu = N[C@@H](CCCCCC(=O)O)C(=O)O; β3hI = CC[C@H](C)[C@H](N)CC(=O)O; NHOH = ON*

Assays:
Histone deacetylase = settings: hela
Description: Inhibition of HDAC in human HeLa cells

Histone deacetylase 2 = Histone deacetylase 2 (Homo sapiens, UniProt Q92769); assay: Inhibition of recombinant HDAC2
Histone deacetylase 3 = Histone deacetylase 3 (Homo sapiens, UniProt O15379); assay: Inhibition of recombinant HDAC3
Histone deacetylase 1 = Histone deacetylase 1 (Homo sapiens, UniProt Q13547); assay: Inhibition of recombinant HDAC1
[1] = target: T1, Protein deacetylase HDAC6 (Homo sapiens, UniProt Q9UBN7); assay: Inhibition of recombinant HDAC6
T1 sequence (Q9UBN7 whole entry): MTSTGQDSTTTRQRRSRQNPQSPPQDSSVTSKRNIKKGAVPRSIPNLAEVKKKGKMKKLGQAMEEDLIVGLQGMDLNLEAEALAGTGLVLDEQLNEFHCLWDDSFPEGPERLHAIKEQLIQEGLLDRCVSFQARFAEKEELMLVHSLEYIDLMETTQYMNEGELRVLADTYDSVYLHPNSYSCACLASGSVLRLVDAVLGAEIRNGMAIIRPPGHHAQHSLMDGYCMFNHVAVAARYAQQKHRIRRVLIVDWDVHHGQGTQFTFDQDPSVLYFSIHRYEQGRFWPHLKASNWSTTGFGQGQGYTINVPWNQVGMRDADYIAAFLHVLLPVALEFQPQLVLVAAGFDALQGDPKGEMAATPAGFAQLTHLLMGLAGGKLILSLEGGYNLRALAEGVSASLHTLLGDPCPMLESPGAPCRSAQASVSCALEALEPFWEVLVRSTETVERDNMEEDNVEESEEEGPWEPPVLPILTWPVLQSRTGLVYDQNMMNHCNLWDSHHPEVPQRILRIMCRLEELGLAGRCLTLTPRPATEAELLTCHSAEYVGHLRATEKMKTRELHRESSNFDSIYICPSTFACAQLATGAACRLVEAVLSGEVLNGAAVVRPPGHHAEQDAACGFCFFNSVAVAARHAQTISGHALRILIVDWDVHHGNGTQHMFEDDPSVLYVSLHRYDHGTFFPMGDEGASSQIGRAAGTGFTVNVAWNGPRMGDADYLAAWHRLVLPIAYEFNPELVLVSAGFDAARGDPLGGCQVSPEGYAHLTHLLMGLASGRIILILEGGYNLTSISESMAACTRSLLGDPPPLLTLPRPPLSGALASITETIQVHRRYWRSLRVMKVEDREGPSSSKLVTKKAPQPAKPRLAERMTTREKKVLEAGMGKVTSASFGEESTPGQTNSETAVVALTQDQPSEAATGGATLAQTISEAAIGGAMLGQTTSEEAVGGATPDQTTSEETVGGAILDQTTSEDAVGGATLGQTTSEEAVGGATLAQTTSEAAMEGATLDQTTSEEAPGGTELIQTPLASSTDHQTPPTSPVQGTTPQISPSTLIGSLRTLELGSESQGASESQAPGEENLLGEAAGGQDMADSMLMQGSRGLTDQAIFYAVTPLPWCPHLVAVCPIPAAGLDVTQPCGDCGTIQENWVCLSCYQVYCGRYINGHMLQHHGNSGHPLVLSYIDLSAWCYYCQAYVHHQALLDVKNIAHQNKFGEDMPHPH

Histone deacetylase 8 = target: T2, Histone deacetylase 8 (Homo sapiens, UniProt Q9BY41); assay: Inhibition of recombinant HDAC8
T2 sequence (Q9BY41 whole entry): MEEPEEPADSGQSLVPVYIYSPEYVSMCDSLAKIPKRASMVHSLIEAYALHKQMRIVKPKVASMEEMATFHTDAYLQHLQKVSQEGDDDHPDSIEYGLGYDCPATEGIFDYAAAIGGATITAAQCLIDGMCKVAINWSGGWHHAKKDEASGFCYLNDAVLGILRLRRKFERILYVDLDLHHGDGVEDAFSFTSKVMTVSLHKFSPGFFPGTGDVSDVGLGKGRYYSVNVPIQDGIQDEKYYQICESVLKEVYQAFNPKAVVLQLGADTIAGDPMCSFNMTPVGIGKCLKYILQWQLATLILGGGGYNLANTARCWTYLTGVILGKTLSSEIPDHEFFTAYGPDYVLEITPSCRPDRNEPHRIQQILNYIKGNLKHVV

[2] = target: T3, Polyamine deacetylase HDAC10 (Homo sapiens, UniProt Q969S8); assay: Inhibition of HDAC10
T3 sequence (Q969S8 whole entry): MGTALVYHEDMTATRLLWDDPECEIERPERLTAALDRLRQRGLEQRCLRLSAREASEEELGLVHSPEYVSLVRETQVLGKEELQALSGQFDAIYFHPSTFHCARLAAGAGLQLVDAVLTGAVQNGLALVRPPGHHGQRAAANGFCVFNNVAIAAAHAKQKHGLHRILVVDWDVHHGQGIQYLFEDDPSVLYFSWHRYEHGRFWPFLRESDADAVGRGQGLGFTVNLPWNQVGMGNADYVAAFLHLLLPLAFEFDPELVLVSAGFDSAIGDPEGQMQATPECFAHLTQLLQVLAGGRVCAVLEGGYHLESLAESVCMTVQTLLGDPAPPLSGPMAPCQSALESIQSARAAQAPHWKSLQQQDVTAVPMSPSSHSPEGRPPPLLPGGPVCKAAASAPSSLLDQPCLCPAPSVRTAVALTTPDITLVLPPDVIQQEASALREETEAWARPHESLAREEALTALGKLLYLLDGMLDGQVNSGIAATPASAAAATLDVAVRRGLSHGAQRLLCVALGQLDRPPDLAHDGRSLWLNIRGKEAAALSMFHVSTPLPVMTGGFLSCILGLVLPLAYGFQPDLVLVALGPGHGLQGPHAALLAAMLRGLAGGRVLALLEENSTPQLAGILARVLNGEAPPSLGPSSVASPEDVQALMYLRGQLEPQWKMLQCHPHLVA

HCT-116 = assay: Antitumor activity against human HCT116 cells xenografted in mouse at 30 mg/kg; format: functional

Histone deacetylase 3, sequence (O15379 whole entry): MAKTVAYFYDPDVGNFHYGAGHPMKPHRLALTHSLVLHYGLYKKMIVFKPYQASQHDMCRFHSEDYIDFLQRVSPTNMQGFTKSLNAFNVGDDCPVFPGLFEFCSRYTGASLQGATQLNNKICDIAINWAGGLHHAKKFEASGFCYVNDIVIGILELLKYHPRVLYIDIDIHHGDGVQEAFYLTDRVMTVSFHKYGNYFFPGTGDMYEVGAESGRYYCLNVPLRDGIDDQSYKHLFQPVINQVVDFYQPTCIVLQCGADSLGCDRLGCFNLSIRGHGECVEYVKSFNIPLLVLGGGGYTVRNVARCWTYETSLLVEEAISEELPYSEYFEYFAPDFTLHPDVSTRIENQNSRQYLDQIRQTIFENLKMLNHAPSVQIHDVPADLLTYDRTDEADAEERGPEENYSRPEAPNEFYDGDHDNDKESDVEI
Histone deacetylase 1, sequence (Q13547 whole entry): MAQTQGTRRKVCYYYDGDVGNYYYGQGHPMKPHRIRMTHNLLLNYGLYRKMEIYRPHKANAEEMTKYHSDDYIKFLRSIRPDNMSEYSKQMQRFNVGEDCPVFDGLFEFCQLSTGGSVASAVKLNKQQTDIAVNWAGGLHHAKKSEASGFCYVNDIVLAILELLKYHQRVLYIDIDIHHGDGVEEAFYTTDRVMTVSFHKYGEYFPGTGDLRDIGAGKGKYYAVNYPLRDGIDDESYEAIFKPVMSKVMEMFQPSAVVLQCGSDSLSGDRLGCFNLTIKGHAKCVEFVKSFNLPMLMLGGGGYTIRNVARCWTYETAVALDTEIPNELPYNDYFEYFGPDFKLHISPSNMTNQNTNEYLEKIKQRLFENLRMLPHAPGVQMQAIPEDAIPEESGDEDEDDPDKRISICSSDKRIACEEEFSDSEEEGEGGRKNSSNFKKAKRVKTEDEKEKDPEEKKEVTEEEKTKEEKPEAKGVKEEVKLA
Histone deacetylase 2, sequence (Q92769 whole entry): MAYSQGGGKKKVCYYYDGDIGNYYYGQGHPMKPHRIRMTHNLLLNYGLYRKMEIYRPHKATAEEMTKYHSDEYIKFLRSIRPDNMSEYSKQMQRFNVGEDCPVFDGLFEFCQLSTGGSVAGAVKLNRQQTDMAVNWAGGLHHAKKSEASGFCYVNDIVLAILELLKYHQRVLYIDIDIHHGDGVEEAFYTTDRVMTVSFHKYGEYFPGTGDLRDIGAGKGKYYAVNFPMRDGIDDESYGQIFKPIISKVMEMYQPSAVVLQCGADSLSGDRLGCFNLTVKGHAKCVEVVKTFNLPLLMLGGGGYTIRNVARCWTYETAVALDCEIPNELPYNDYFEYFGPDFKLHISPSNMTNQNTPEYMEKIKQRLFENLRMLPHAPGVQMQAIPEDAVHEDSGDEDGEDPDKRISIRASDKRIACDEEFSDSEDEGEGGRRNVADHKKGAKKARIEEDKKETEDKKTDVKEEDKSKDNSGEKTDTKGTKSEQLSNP

Compound: CCC(=O)CCCCC[C@@H]1NC(=O)CNC(=O)C[C@H]([C@@H](C)CC)N(C)C(=O)[C@H](Cc2cc3ccccc3[nH]2)NC1=O
- IC50 (Histone deacetylase): 2000 nM

Compound: N=C/C=N/c1ccc(C(=O)Nc2cc(-c3cccs3)ccc2N)cc1
- IC50 (Histone deacetylase 2): 20 nM
- IC50 (Histone deacetylase 3): > 20 µM
- IC50 (Histone deacetylase 1): 60 nM
- IC50 [1]: > 20 µM
- IC50 (Histone deacetylase 8): > 20 µM

Compound: CCC(=O)CCCCC[C@@H]1NC(=O)[C@H](C)NC(=O)C[C@H]([C@@H](C)CC)NC(=O)[C@H](Cc2cc3ccccc3[nH]2)NC1=O
- IC50 (Histone deacetylase): 40 nM

Compound: CCC(=O)CCCCC[C@@H]1NC(=O)CNC(=O)C[C@H]([C@@H](C)CC)NC(=O)[C@H](Cc2cc3ccccc3[nH]2)N(C)C1=O
- IC50 (Histone deacetylase): > 10000 nM

Compound: COc1ccc(C(=O)Nc2cc(-c3cccs3)ccc2N)cc1
- IC50 (Histone deacetylase 3): > 20 µM
- IC50 [1]: > 20 µM
- IC50 (Histone deacetylase 8): > 20 µM

Compound: CC(=O)Nc1ccc(C(=O)Nc2cc(-c3cccs3)ccc2N)cc1
- IC50 (Histone deacetylase 8): > 20 µM

Compound: Cn1c(/C=C/C(=O)NO)ccc1C(=O)c1ccccc1
- IC50 [2]: 280 nM

Compound: Cn1cc(/C=C/C(=O)NO)cc1C(=O)c1ccccc1
- IC50 [2]: 50 nM

Compound: CC[C@H](C)[C@H]1CC(=O)NCC(=O)N[C@@H](CCCCCC(N)=O)C(=O)N[C@@H](Cc2cc3ccccc3[nH]2)C(=O)N1 (cyclo([Asu](NH2)[Ala(indol-2-yl)][β3hI]G))
- IC50 (Histone deacetylase): 2700 nM

Compound: CC(=O)Nc1ccc(C(=O)Nc2ccccc2N)cc1 [TACEDINALINE]
- inhibition in vivo at 30 mg/kg (HCT-116): 52%

Other lines, results leading:

- IC50 (Histone deacetylase): 19 nM
Compound: CCC(=O)CCCCC[C@@H]1NC(=O)CNC(=O)C[C@H]([C@@H](C)CC)NC(=O)[C@H](Cc2cc3ccccc3[nH]2)NC1=O

- IC50 (Histone deacetylase): 900 nM
Compound: O=C(CS)NCCCCCC(=O)Nc1cccc2cccnc12

- IC50 (Histone deacetylase): 900 nM
Compound: O=C(CS)NCCCCCC(=O)Nc1ccc2ncccc2c1

- IC50 (Histone deacetylase): < 1 nM
Compound: CC[C@H](C)[C@H]1CC(=O)NCC(=O)N[C@@H](CCCCCC(=O)NO)C(=O)N[C@@H](Cc2cc3ccccc3[nH]2)C(=O)N1 (cyclo([Asu](NHOH)[Ala(indol-2-yl)][β3hI]G))

- IC50 (Histone deacetylase): 300 nM
Compound: CC[C@H](C)[C@H]1CC(=O)NCC(=O)N[C@@H](CCCCCC(=O)O)C(=O)N[C@@H](Cc2cc3ccccc3[nH]2)C(=O)N1 (cyclo([Asu][Ala(indol-2-yl)][β3hI]G))
